The values that follow come from article PMC6150310, “Synthesis and Structure–Activity Relationships of 4-Morpholino-7,8-Dihydro-5H-Thiopyrano[4,3-d]pyrimidine Derivatives Bearing Pyrazoline Scaffold” (Molecules : A Journal of Synthetic Chemistry and Natural …, 2017).

One data set concerns PC-3 cell line. The experiment in a line: MTT cytotoxicity assay, PC-3. The format is cell-based. Conditions: Homo sapiens, PC-3, 72 h, average of two determinations, NA = No Activity. How it is done:
(§1) Taking GDC-0941 as the reference compound, the target compounds (7a–l and 8a–l) were evaluated for the cytotoxicity against four cancer cell lines A549, PC-3, MCF-7, and HepG2 by 3-(4,5-dimethylthiazolyl-2)-2,5-diphenyltetrazolium bromide (MTT) cell proliferation assay. In order to confirm the types of target compound, selective or mixed-type inhibitors, the selected compound, 8d, was measured for its PI3Kα kinase inhibitory activity together with reference compounds GDC-0941 and PI103 via the Kinase-Glo® Luminescent […] assay. The results expressed as inhibition rates or IC50 values are summarized in Table 1 and Table 2, where the values are the average of at least two independent experiments.
(§2) The in vitro cytotoxic activities of Compounds 7a–l and 8a–l were evaluated with A549, PC-3, HepG2, and MCF-7 cell lines by the standard MTT assay, with GDC-0941 as a positive control. The cancer cell lines were cultured in minimum essential medium (MEM) supplement with 10% fetal bovine serum (FBS). Approximately, 4 × 10^3 cells, suspended in MEM medium, were plated onto each well of a 96-well plate and incubated in 5% CO2 at 37 °C for 24 h. The test compounds at the indicated final concentrations were added to the culture medium, and cell cultures continued for 72 h. Fresh MTT was added to each well at a terminal concentration of […] and incubated with cells at 37 °C for 4 h. The formazan crystals were dissolved in 100 µL of DMSO in each well, and the absorbency at 492 nm (for absorbance of MTT formazan) and 630 nm (for the reference wavelength) was measured with an enzyme linked immunosorbent assay (ELISA) reader (MR-96A Mindray Elisa Microplate Reader, Guangzhou, China). All compounds were tested three times in each of the cell lines. The results expressed as inhibition rates or IC50 were the averages of two determinations and calculated using the Bacus Laboratories Inc. Slide Scanner (Bliss) software (the Bacus Laboratories Inc. Slide Scanner (BLISS) system, Lombard, IL, USA).
(In general: Tetrazolium dyes change colour on reduction, which living cells bring about.)

A further data set concerns A549 cell line. In words: MTT cytotoxicity assay, A549. Conditions: Homo sapiens, A549, 72 h, average of two determinations, NA = No Activity. The format is cell-based. How it is done: as §1, §2
The next data set concerns MCF-7 cell line. The experiment in a line: MTT cytotoxicity assay, MCF-7. The format is cell-based. The settings on record: Homo sapiens, MCF7, 72 h, average of two determinations, NA = No Activity. How it is done:
as §1, §2

For a further data set, the system named is HepG2 cell line. The experiment in a line: MTT cytotoxicity assay, HepG2. The settings on record: Homo sapiens, HepG2, 72 h, average of two determinations, NA = No Activity. The format is cell-based. How it is done: as §1, §2

With `O=S1(=O)CCc2nc(N3N=C(c4ccccc4)C[C@@H]3c3ccc(Br)cc3)nc(N3CCOCC3)c2C1` [Compound 8k, (R)-2-(5-(4-Bromophenyl)-3-phenyl-4,5-dihydro-1H-pyrazol-1-yl)-4-morpholino-7,8-dihydro-5H-thiopyrano[4,3-d]pyrimidine 6,6-dioxide], the melting point (commonly the temperature of the solid-liquid transition) was in the range of 163 to 167 °C. In addition, the IC50 (in general, the concentration at which inhibition is half-maximal) with PC-3 cell line came to 33.5 ± 1.67 µM. The same compound showed a half-maximal inhibitory concentration (IC50) in the data set with A549 cell line of 35 ± 0.47 µM. For the same compound, inhibition in the data set with MCF-7 cell line was half-maximal at 32.6 ± 0.49 µM (IC50). The IC50 with HepG2 cell line was found to be 35.49 ± 0.33 µM.

`O=S1(=O)CCc2nc(N3N=C(c4ccc(Br)cc4)C[C@@H]3c3ccc(Cl)c(Cl)c3)nc(N3CCOCC3)c2C1` [Compound 8c, (R)-2-(3-(4-Bromophenyl)-5-(3,4-dichlorophenyl)-4,5-dihydro-1H-pyrazol-1-yl)-4-morpholino-7,8-dihydro-5H-thiopyrano[4,3-d]pyrimidine 6,6-dioxide] gave a melting point of 162 to 163 °C. In addition, in the data set on PC-3 cell line, inhibition was half-maximal at 37.58 ± 0.22 µM (IC50). The compound also displayed an IC50 in the data set on A549 cell line of 27.8 ± 1.18 µM. The same compound yielded an IC50 in the data set with MCF-7 cell line of 43.86 ± 0.15 µM. In the data set on HepG2 cell line, this compound displayed an IC50 of 0.06 ± 0.01 µM.

Regarding `O=S1(=O)CCc2nc(N3N=C(c4ccc(F)cc4)C[C@@H]3c3ccc(Br)cc3)nc(N3CCOCC3)c2C1` (racemic) [Compound 8j, (R)-2-(5-(4-Bromophenyl)-3-(4-fluorophenyl)-4,5-dihydro-1H-pyrazol-1-yl)-4-morpholino-7,8-dihydro-5H-thiopyrano[4,3-d]pyrimidine 6,6-dioxide], the IC50 was 31.9 ± 0.92 µM with PC-3 cell line, 29.7 ± 0.32 µM in the data set on A549 cell line, 46.6 ± 0.89 µM with MCF-7 cell line and 27.8 ± 0.64 µM in the data set on HepG2 cell line.

On to `Brc1ccc([C@H]2CC(c3ccccc3)=NN2c2nc3c(c(N4CCOCC4)n2)CSCC3)cc1` [Compound 7k, (R)-4-(2-(5-(4-Bromophenyl)-3-phenyl-4,5-dihydro-1H-pyrazol-1-yl)-7,8-dihydro-5H-thiopyrano[4,3-d]pyrimidin-4-yl)morpholine], for which the melting point was 167 to 168 °C. In addition, the IC50 in the data set with PC-3 cell line turned out to be 17.8 ± 0.55 µM. Besides, the IC50 in the data set on A549 cell line came to 31.2 ± 0.59 µM. The IC50 in the data set with MCF-7 cell line is 35.7 ± 0.74 µM. The IC50 in the data set with HepG2 cell line was determined as 32.7 ± 0.36 µM.

For `Fc1ccc(C2=NN(c3nc4c(c(N5CCOCC5)n3)CSCC4)[C@@H](c3ccc(Br)cc3)C2)cc1` (racemic) [Compound 7j, (R)-4-(2-(5-(4-Bromophenyl)-3-(4-fluorophenyl)-4,5-dihydro-1H-pyrazol-1-yl)-7,8-dihydro-5H-thiopyrano[4,3-d]pyrimidin-4-yl)morpholine], the IC50 with PC-3 cell line was found to be 14.8 ± 1.02 µM; with A549 cell line, 19.2 ± 1.25 µM; in the data set on MCF-7 cell line it was 28.25 ± 0.14 µM; with HepG2 cell line, 23.8 ± 0.55 µM.

Consider `Cc1ccc(C2=NN(c3nc4c(c(N5CCOCC5)n3)CSCC4)[C@@H](c3ccc(Br)cc3)C2)cc1` (racemic) [Compound 7i, (R)-4-(2-(5-(4-Bromophenyl)-3-(p-tolyl)-4,5-dihydro-1H-pyrazol-1-yl)-7,8-dihydro-5H-thiopyrano[4,3-d]pyrimidin-4-yl)morpholine], for which the results for the half-inhibitory concentration (IC50) with PC-3 cell line and in the data set with A549 cell line were 25.4 ± 0.74 µM and 16.4 ± 0.43 µM, respectively.

As to `CS(=O)(=O)N1CCN(Cc2cc3nc(-c4cccc5[nH]ncc45)nc(N4CCOCC4)c3s2)CC1` [GDC-0941, Pictilisib dimethanesulfonate, reference compound], the IC50 in the data set with PC-3 cell line stood at 0.2 ± 0.08 µM; in the data set on A549 cell line, 6.99 ± 0.21 µM; in the data set on MCF-7 cell line it was 4.3 ± 0.84 µM; in the data set on HepG2 cell line it was 0.07 ± 0.03 µM.

`Clc1ccc([C@H]2CC(c3ccc(Br)cc3)=NN2c2nc3c(c(N4CCOCC4)n2)CSCC3)cc1Cl` [Compound 7c, (R)-4-(2-(3-(4-Bromophenyl)-5-(3,4-dichlorophenyl)-4,5-dihydro-1H-pyrazol-1-yl)-7,8-dihydro-5H-thiopyrano[4,3-d]pyrimidin-4-yl)morpholine] returned a melting point of 185 to 186 °C. Moreover, the IC50 in the data set with PC-3 cell line was found to be 12.9 ± 1.56 µM. Besides, half-maximal inhibition in the data set on A549 cell line (IC50) was put at 13 ± 0.42 µM. This compound came in with an IC50 in the data set on MCF-7 cell line of 22.98 ± 0.19 µM. This compound came in with an IC50 with HepG2 cell line of 15.36 ± 0.03 µM.

For the compound `COc1ccc(C2=NN(c3nc4c(c(N5CCOCC5)n3)CS(=O)(=O)CC4)[C@@H](c3ccc(F)cc3)C2)cc1` [Compound 8h, (R)-2-(5-(4-Fluorophenyl)-3-(4-methoxyphenyl)-4,5-dihydro-1H-pyrazol-1-yl)-4-morpholino-7,8-dihydro-5H-thiopyrano[4,3-d]pyrimidine 6,6-dioxide], the melting point is 140 to 142 °C. The same compound registered an IC50 in the data set with PC-3 cell line of 26.6 ± 0.33 µM. This compound also yielded an IC50 with A549 cell line of 35 ± 0.74 µM. The IC50 with MCF-7 cell line came to 33.9 ± 0.45 µM. This compound registered a half-maximal inhibitory concentration (IC50) in the data set with HepG2 cell line of 32.9 ± 2.82 µM.

With `Clc1ccc([C@H]2CC(c3ccccc3)=NN2c2nc3c(c(N4CCOCC4)n2)CSCC3)cc1Cl` (racemic) [Compound 7e, (R)-4-(2-(5-(3,4-Dichlorophenyl)-3-phenyl-4,5-dihydro-1H-pyrazol-1-yl)-7,8-dihydro-5H-thiopyrano[4,3-d]pyrimidin-4-yl)morpholine], the results for the IC50 in the data set with PC-3 cell line and in the data set with MCF-7 cell line were 37.8 ± 3.64 µM and 35.9 ± 0.71 µM, respectively.

In the case of `c1ccc(C2=NN(c3nc4c(c(N5CCOCC5)n3)CSCC4)[C@@H](c3ccccc3)C2)cc1` [Compound 7a, (R)-4-(2-(3,5-Diphenyl-4,5-dihydro-1H-pyrazol-1-yl)-7,8-dihydro-5H-thiopyrano[4,3-d]pyrimidin-4-yl)morpholine], the melting point lay in the range of 139 to 142 °C. For the same compound, half-maximal inhibition in the data set on PC-3 cell line (IC50) was put at 28.8 ± 2.4 µM. The IC50 in the data set with A549 cell line was found to be 21.7 ± 0.76 µM. For the same compound, the IC50 in the data set on MCF-7 cell line came out at 21.7 ± 0.78 µM. Besides, half-maximal inhibition in the data set on HepG2 cell line (IC50) was put at 20.3 ± 1.15 µM.

In turn, `COc1ccc(C2=NN(c3nc4c(c(N5CCOCC5)n3)CS(=O)(=O)CC4)[C@@H](c3ccccc3)C2)cc1` [Compound 8l, (R)-2-(3-(4-Methoxyphenyl)-5-phenyl-4,5-dihydro-1H-pyrazol-1-yl)-4-morpholino-7,8-dihydro-5H-thiopyrano[4,3-d]pyrimidine 6,6-dioxide] gave a melting point of 109 to 114 °C. In addition, the IC50 in the data set on PC-3 cell line came to 37.38 ± 0.23 µM.

In turn, `COc1ccc(C2=NN(c3nc4c(c(N5CCOCC5)n3)CSCC4)[C@@H](c3ccccc3)C2)cc1` [Compound 7l, (R)-4-(2-(3-(4-Methoxyphenyl)-5-phenyl-4,5-dihydro-1H-pyrazol-1-yl)-7,8-dihydro-5H-thiopyrano[4,3-d]pyrimidin-4-yl)morpholine] registered a melting point of more than 300 °C. In the data set on PC-3 cell line, this compound came in with an IC50 of 28.25 ± 0.14 µM. Moreover, in the data set on A549 cell line, the IC50 is 36.4 ± 0.62 µM.

In the data set on MCF-7 cell line, `O=S1(=O)CCc2nc(N3N=C(c4ccccc4)C[C@@H]3c3ccc(Cl)c(Cl)c3)nc(N3CCOCC3)c2C1` [Compound 8e, (R)-2-(5-(3,4-Dichlorophenyl)-3-phenyl-4,5-dihydro-1H-pyrazol-1-yl)-4-morpholino-7,8-dihydro-5H-thiopyrano[4,3-d]pyrimidine 6,6-dioxide] showed an IC50 of 35.3 ± 0.49 µM.

With `O=S1(=O)CCc2nc(N3N=C(c4ccccc4)C[C@@H]3c3ccccc3)nc(N3CCOCC3)c2C1` [Compound 8a, (R)-2-(3,5-Diphenyl-4,5-dihydro-1H-pyrazol-1-yl)-4-morpholino-7,8-dihydro-5H-thiopyrano[4,3-d]pyrimidine 6,6-dioxide], the melting point lay within 219 to 220 °C. In addition, in the data set with A549 cell line, it took 27.6 ± 0.85 µM to reach half-maximal inhibition (IC50). This compound also had an IC50 in the data set with MCF-7 cell line of 41.2 ± 1.25 µM. In addition, inhibition with HepG2 cell line was half-maximal at 32.7 ± 0.39 µM (IC50).

`Cc1ccc(C2=NN(c3nc4c(c(N5CCOCC5)n3)CS(=O)(=O)CC4)[C@@H](c3ccc(Br)cc3)C2)cc1` (racemic) [Compound 8i, (R)-2-(5-(4-Bromophenyl)-3-(p-tolyl)-4,5-dihydro-1H-pyrazol-1-yl)-4-morpholino-7,8-dihydro-5H-thiopyrano[4,3-d]pyrimidine 6,6-dioxide]: the IC50 came to 31.89 ± 0.25 µM with PC-3 cell line, 28.1 ± 0.89 µM with A549 cell line and 24.7 ± 0.74 µM in the data set on HepG2 cell line.

`Cc1ccc(C2=NN(c3nc4c(c(N5CCOCC5)n3)CS(=O)(=O)CC4)[C@@H](c3ccc(Cl)c(Cl)c3)C2)cc1` [Compound 8b, (R)-2-(5-(3,4-Dichlorophenyl)-3-(p-tolyl)-4,5-dihydro-1H-pyrazol-1-yl)-4-morpholino-7,8-dihydro-5H-thiopyrano[4,3-d]pyrimidine 6,6-dioxide] gave a melting point of 225 to 226 °C. In the data set with PC-3 cell line, this compound had an IC50 of 17.8 ± 1.18 µM. This compound also returned an IC50 in the data set with A549 cell line of 35.6 ± 1.47 µM. In addition, the midpoint of inhibition in the data set on MCF-7 cell line, the IC50, lay at 42.46 ± 0.03 µM.

As to `COc1ccc(C2=NN(c3nc4c(c(N5CCOCC5)n3)CS(=O)(=O)CC4)[C@@H](c3ccc(Cl)c(Cl)c3)C2)cc1` [Compound 8f, (R)-2-(5-(3,4-Dichlorophenyl)-3-(4-methoxyphenyl)-4,5-dihydro-1H-pyrazol-1-yl)-4-morpholino-7,8-dihydro-5H-thiopyrano[4,3-d]pyrimidine 6,6-dioxide], the figures for the IC50 with PC-3 cell line and in the data set with HepG2 cell line were 38.65 ± 0.18 µM and 35.01 ± 0.18 µM, respectively.
